Source: patent US8846861B2, “Peptide clearing agents” (Mologic Ltd, priority 2009, dated 2014)
“Also recorded” adds a separate entry of the source. Like-named read-outs stand apart in the source and are kept apart here.

How the values were obtained:
[1] = biological target: CPG2 enzyme activity of ScFV anti CEA-CPG2; experiment: Spectrophotometric CPG2 enzyme inhibition assay (methotrexate hydrolysis, absorbance at 320 nm); type: biochemical, Psuedomonas; conditions: for IC50: methotrexate substrate 60 μM, 37° C., pH 7.3; for inhibition of CPG2 activity (in words): spectrophotometric assay
Method: Enzyme Inhibition Assay Method Used for the Assessment of CP014 as an Inhibitor of CPG2 Activity
The effect that CP014 had on CPG2 activity was measured using a spectrophotometric assay. CP014 was dissolved in assay buffer (0.1 M Tris-HCl buffer at pH 7.3 containing 0.2 mM zinc chloride) to give a concentration of 40 mM. Various aliquots of this solution were added to cuvettes and assay buffer was added to adjust the volume of solution in each cuvette to 900 μL. 100 μL aliquots of 0.6 mM methotrexate solution in assay buffer were added to each cuvette to give a methotrexate substrate concentration of 0.06 mM (60 μM). The range of the concentration of CP014 in the cuvettes was 0-400 μM.
The substrate solutions in the cuvettes were heated to 37° C. in an oven. The cuvettes were then placed in turn in a spectrophotometer which was maintained at 37° C. using a Peltier. The assays were commenced by adding a 10 μL aliquot of fusion protein (ScFV anti CEA-CPG2) solution or CPG2 solution, followed by brief stirring. The hydrolysis of the methotrexate substrate was monitored by measuring the decrease in absorbance at 320 nm.
One unit (1 U) of CPG2 activity is defined as the amount of enzyme which catalyses the hydrolysis of 1 μmol of methotrexate per minute at 37° C. The molar extinction coefficient of methotrexate was taken as 8300 L mol^−1 cm^−1. For each assay a plot of absorbance versus time was created and a straight line was fitted to the data between 0 and 0.2 minutes. The slope of the straight line was then multiplied by minus 12 and the dilution factor of the ScFV anti CEA-CPG2/CPG2 solution to give the enzyme activity in U/mL.
A variation of the assay was to incubate various amounts of CP014 with ScFV anti CEA-CPG2 or CPG for a period of time at 4° C. prior to CPG2 assay. Following this incubation step, a 10 μL aliquot of each mixture was added to a cuvette that contained a 1 mL aliquot of 0.06 mM methotrexate in assay buffer at 37° C. After stirring the contents of the cuvette, the measurement of the decrease in absorbance and subsequent determination of enzyme activity were carried out as described above.
The effectiveness of CP014 in inhibiting CPG2 activity was expressed in terms of its IC50 value, i.e. the half maximal inhibitory concentration. Using GraphPad Prism 5 software, the IC50 value was determined by applying non-linear regression to a plot of enzyme activity versus the logarithm of the CP014 concentration.

[2] = tested on: ScFv anti CEA-CPG2 fusion protein; experiment: Binding studies using Surface Plasmon Resonance (Biacore), peptide immobilised on CM5 chip; set-up: species or system Psuedomonas
Description: Peptide clearing agents of the invention are exemplified herein displaying appropriate kinetics and affinity properties. Such kinetic and affinity properties may be measured using any suitable means. Kinetic and affinity parameters may be derived based upon binding studies using Surface Plasmon Resonance (SPR), which is a well known technique (and commercially available, for example from GE Healthcare—Biacore system). Data obtained using a suitable instrument may be analysed by appropriate software to automatically derive the relevant parameters. An appropriate binding model may be applied by the software to ensure the fit to the curves is as close as possible. A chi2 value of less than 0.2 may be considered an acceptable fit.
Binding Studies Using Surface Plasmon Resonance (SPR)
Peptides were coupled to a CM5 chip using EDC/NHS chemistry as recommended by the manufacturer (GE healthcare). Analytes were made up in HBS-P buffer (0.01 M HEPES pH 7.4, 0.15 M NaCl, 0.005% v/v Surfactant P20) and injected over the surface for 180 seconds at 5 μl/min followed by a dissociation time of 300 seconds. Residual binding was removed using two 10 second injections of regeneration buffer (10 mM CHAPS, 1 mM Guanidinium hydrochloride, 2 M NaCl). Response signals and baselines were checked for consistency throughout the experiment and flow rates of 15 and 75 μl/min were tested to confirm minimal effects due to mass transport.
FIGS. 6a and 6c each show four sensorgrams overlaid. These are the blank-subtracted real time responses from injections of 12.5, 25, 50 and 100 nM ScFVanti-CEA-CPG2 over the chip surface of immobilised CP014 peptide. The data has been fitted using two different algorithms supplied in the BiaCore software (“Biaevaluation”). The first, shown in FIG. 6a, was a 1:1 binding model (Langmuir) and the second, shown in FIG. 6c, was a 2-state reaction fit. Both fits align closely to the normalised sensorgrams. […] In addition, the Chi2 values are 0.154 and 0.0882 respectively and are within the acceptable range (<0.2) for these types of calculation. For both fits the dissociation constant (binding constant KD) was in close agreement at 5 nM and 9 nM, respectively.

ScFV anti CEA-CPG2 = experiment: Non-amplified Amplex Red assay for screening of potential CPG2 substrates; type: biochemical, Psuedomonas; conditions: for substrate potential for CPG2 (in words): Amplex Red fluorescence, CP014 12.5 and 100 μM, FIG. 10 substrate 12.5 μM
Description: Non-Amplified Amplex Red Assay for the Screening of Potential CPG2 Substrates
It was established that CP014 is a potential inhibitor of CPG2 activity using a spectrophotometric assay. […] The so-called Amplex Red assay can be used to measure to measure L-glutamate in food samples and continuously monitor glutamate oxidase activity. By eliminating an amplification step in the assay procedure, it was possible to screen compounds as substrates for CPG2. In the modified assay, L-glutamic acid that has been cleaved from a substrate of CPG2 is oxidised by glutamate oxidase to produce α-ketoglutarate, ammonia and hydrogen peroxide. The hydrogen peroxide then reacts with 10-acetyl-3,7-dihydroxyphenoxazine (Amplex Red reagent) in a 1:1 stoichiometry in a reaction catalysed by horseradish peroxidise (HRP) to generate the highly fluorescent product, resorufin.
25 μM and 200 μM solutions of CP014 in assay buffer (0.1 M Tris-HCl buffer at […] containing 0.2 mM zinc chloride), and a 25 μM solution of folic acid in assay buffer were prepared. The Amplex Red reagent mixture was prepared by combining 2.5 μL 10 mM solution of Amplex Red reagent in DMSO, 5 μL HRP solution in assay buffer (100 U/mL), 32 μL L-glutamate oxidase solution in assay buffer (5 U/mL) and 460.5 μL assay buffer solution. ScFV anti CEA-CPG2 fusion protein was diluted appropriately using assay buffer.
A 50 μL aliquot of CP014 solution or 25 μM folic acid solution and a 50 μL aliquot of the Amplex Red reagent mixture were added to a well of a black microtitre plate. The plate was covered, then incubated at 37° C. for 10 minutes. The cover was removed and a 1 μL aliquot of ScFV anti CEA-CPG2 was added. After brief stirring, the plate was placed in a BMG Fluostar Omega plate reader and the fluorescence intensity was monitored over a 245 second period at 5 second intervals. The excitation filter wavelength was set at 544 nm and the emission filter wavelength was set at 590 nm.
When ScFV anti CEA-CPG2 was diluted to a concentration of approximately 2 U/mL, the slope value that was calculated for the 12.5 μM folic acid control assay was approximately 4.0.

Nc1ccc2ccccc2c1C(=O)N[C@@H](CCC(=O)O)C(=O)O [CP006, Amino-Naphthoic Acid (ANA)-Glutamate (Glu)]
IC50 [1]: 88.5 µM
IC50 ([1]; listed as formula I): ~88.5 µM
inhibition of CPG2 activity (in words) [1]: is an inhibitor
affinity for the active site of CPG2 (in words) [2]: nanomolar affinity
substrate potential for CPG2 (in words) (ScFV anti CEA-CPG2): Poor Substrate; also recorded: low substrate activity
substrate potential for CPG2 (in words) (ScFV anti CEA-CPG2; listed as formula I): not acted upon as a substrate

C[C@@H](NC(=O)[C@@H](N)CO[C@H]1OC(CO)[C@H](O)C(O)C1O)C(=O)Nc1ccc2ccccc2c1C(=O)NC(CCC(=O)O)C(=O)O (stereo partly drawn) [CP014]
IC50 [1]: 110 µM
IC50 ([1]; listed as formula II): ~110 µM
inhibition of CPG2 activity (in words) [1]: inhibits CPG2 activity; also recorded: is an inhibitor
affinity for the active site of CPG2 (in words) [2]: nanomolar affinity
KA (equilibrium association constant) ([2]; 1:1 Langmuir fit): 1.98e+08 M⁻¹
Ka (association rate constant) ([2]; 1:1 Langmuir fit): 226000 M⁻¹ s⁻¹
Kd (dissociation rate constant) ([2]; 1:1 Langmuir fit): 0.00114 s⁻¹
Kd ([2]; 1:1 Langmuir fit, read-out: KD (dissociation constant)): 0.00504 µM
Kd ([2]; 1:1 Langmuir fit, read-out: dissociation constant (binding constant KD)): 0.005 µM
K (equilibrium association constant) ([2]; 2 state reaction fit): 1.09e+08 M⁻¹
ka1 ([2]; 2 state reaction fit): 284000 M⁻¹ s⁻¹
ka2 ([2]; 2 state reaction fit): 0.014 s⁻¹
kd1 ([2]; 2 state reaction fit): 0.0258 s⁻¹
kd2 ([2]; 2 state reaction fit): 0.00158 s⁻¹
Kd ([2]; 2 state reaction fit, read-out: dissociation constant (binding constant KD)): 0.009 µM
slope of fluorescence intensity versus time, against negative control (in words) (ScFV anti CEA-CPG2; 12.5 and 100 μM in the plate well): no greater than that of the negative control sample
substrate potential for CPG2 (in words) (ScFV anti CEA-CPG2): not a substrate; also recorded: not altered or used as a substrate; also recorded: not turned over
substrate potential for CPG2 (in words) (ScFV anti CEA-CPG2; listed as formula II): not acted upon as a substrate

Nc1nc2ncc(CNc3ccc(C(=O)N[C@@H](CCC(=O)O)C(=O)O)cc3)nc2c(=O)[nH]1 [Folic acid, reference compound]
slope of fluorescence intensity versus time (ScFV anti CEA-CPG2; 12.5 μM in well, ScFV anti CEA-CPG2 approximately 2 U/mL): approximately 4.0
substrate potential for CPG2 (in words) (ScFV anti CEA-CPG2): positive controls

CN(Cc1cnc2nc(N)nc(N)c2n1)c1ccc(C(=O)N[C@@H](CCC(=O)O)C(=O)O)cc1 [methotrexate, reference compound]
substrate potential for CPG2 (in words) (ScFV anti CEA-CPG2): positive controls
